Data reported in patent US10039846B2, “Compositions targeting bradykinin receptor B1 for medical imaging of cancer and other disorders” (BRITISH COLUMBIA CANCER AGENCY BRANCH, priority 2012, dated 2018).
“And” between values parts separate entries of the source, which are not always exact repeats. Identical values can stand only once. Like-named read-outs stand apart in the source and are kept apart here. Values belong to the compound of their own block, whether it stands above or below them. Where a SMILES comes first, the peptide text is derived from it. Where no end group is shown, it is not given here. [ ]: non-standard residue; d: D form. The star is where a group is joined. DOTA = O=C(O)CN1CCN(CC(=O)O)CCN(CC(=O)*)CCN(CC(=O)O)CC1; Hyp = O=C(O)[C@@H]1C[C@@H](O)CN1; Cha = N[C@@H](CC1CCCCC1)C(=O)O; PEG2 = NCCOCCOCCC(=O)O; Ahx = NCCCCCC(=O)O; Sar = CNCC(=O)O

Tests used:
[1] = tested on: HEK-293 and HEK-293/BKRB1 tumours; assay: PET/CT imaging of 68Ga-labelled peptides in tumour-bearing mice; conditions: PET/CT 60 minutes after intravenous injection
Method: (§2) For in vivo imaging, HEK-293 and HEK-293 cells stably transfected with the human bradykinin receptor B1 (HEK-293/BKRB1) were inoculated in the flank of immunodeficient mice (NODSCID IL2rKO). […] A computer tomography image of the mouse was obtained for organ localization and attenuation correction, followed by PET imaging, using a Siemens Inveon multimodality preclinical scanner. Images were acquired over 10-15 minutes for each animal.

[2] = in vivo; conditions: NODSCID/IL2RKO, mouse, total radioactivity
Method: (§1) ^68Ga labeling of Peptide 4 was performed in NaOAc buffer (pH 4.1) at 110° C. for 10 min, and [^68Ga]P03083 was purified by HPLC. PET imaging and biodistribution studies were performed in NODSCID/IL2RKO mice bearing both B1R-negative HEK293T:GFP tumour and B1R-positive HEK293T:hB1R tumour.

[3] = tested on: B1R-negative HEK293T:GFP tumour and B1R-positive HEK293T:hB1R tumour; assay: in vivo; conditions: mouse
Method: as §1

[4] = target: T1, B1R (Homo sapiens, UniProt P46663); conditions: Cote et al, Peptides 2009; cited from earlier work
T1 sequence (P46663 1-353): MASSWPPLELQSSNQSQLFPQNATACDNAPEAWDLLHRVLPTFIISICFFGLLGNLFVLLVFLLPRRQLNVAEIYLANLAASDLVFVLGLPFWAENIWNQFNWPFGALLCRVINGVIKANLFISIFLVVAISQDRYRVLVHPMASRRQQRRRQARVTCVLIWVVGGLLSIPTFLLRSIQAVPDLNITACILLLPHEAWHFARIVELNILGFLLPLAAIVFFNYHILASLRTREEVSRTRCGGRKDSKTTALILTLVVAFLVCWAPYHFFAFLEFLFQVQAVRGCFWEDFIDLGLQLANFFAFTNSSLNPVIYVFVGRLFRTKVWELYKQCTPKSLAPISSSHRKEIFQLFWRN

[5] = target: T2, B2R (Homo sapiens, UniProt P30411); conditions: Cote et al, Peptides 2009; cited from earlier work
T2 sequence (P30411 1-391): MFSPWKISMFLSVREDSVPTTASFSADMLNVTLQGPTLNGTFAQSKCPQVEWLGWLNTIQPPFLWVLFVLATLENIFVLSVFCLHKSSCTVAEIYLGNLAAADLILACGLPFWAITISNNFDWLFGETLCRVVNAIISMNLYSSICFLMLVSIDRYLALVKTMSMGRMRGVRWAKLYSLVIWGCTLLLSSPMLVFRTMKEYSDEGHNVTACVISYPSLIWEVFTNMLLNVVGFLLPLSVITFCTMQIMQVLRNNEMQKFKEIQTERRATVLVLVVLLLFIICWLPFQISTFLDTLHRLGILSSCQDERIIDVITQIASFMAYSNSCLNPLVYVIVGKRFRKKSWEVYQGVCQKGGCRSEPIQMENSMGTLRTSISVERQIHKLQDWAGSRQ

[6] = tested on: HEK-293 and HEK-293/BKRB1 tumours; conditions: mouse
Method: as §2

[7] = target: T1, B1R; assay: Competitive binding assay with 3H radioligand on CHO-K1 cell membranes over-expressing human B1R; set-up: purchased Perkin Elmer Inc., Waltham, Mass; ES-091-M400UA; host or cells: CHO-K1 cells over-expressing human B1R (membrane preparation)
Method: The ability of the peptide and small molecule B1R targeting compounds to bind to B1R was assessed in competitive binding assay as described below.
Preparation of Cell Membranes: Ready to use cell membranes (12.5 μg/μL) from CHO-K1 cells over-expressing human B1R were obtained from Perkin Elmer Inc., Waltham, Mass. (cat. no. ES-091-M400UA). Binding using cell membranes from HEK293T::GFP::hB1R (from Example 3) was also tested. In the latter case, the membranes were prepared as follows: 90% confluent cells grown in large flask, T225, were detached and pelleted in a 50 mL conical tube using centrifuge at 1,200 rpm for 5 minutes. Afterward, cells were re-suspended in 20-30 mL of cold 50 mM Tris-HCl pH 7.4. Ice cold cells were disrupted for 15 seconds at 15,000 rpm with a Polytron PT3100 (Kinematica AG, Lucerne, Switzerland). The solution was aliquoted and centrifuged at 4° C. at 17,000×g for 30 minutes. The supernatant was discarded, and then the pellet was dissolved in 1-2 mL of cold salt solution containing 50 mM Tris-HCl pH 7.4 and 100 mM NaCl and incubated for 1 hour on ice. The cell membranes were pelleted by centrifugation at 4° C. at 17,000×g for 30 minutes and resuspended in 200-600 μL of 50 mM Tris-HCl pH 7.4. The cell membrane extract was stored at −80° C. Protein concentration was determined by Bradford assay (cat. no. R1271, Fermentas, Thermo Fisher Scientific, Burlington, ON). 50 ug of cell membranes per well was used for the competitive binding assay. […] Radio-labelled control was H-3 labelled [Leu^9,des-Arg^10] kallidin obtained either from American Radiolabelled Chemicals Inc, St. Louis, Mo.
Competitive Binding Assays: Assays were performed using 96-well MultiScreenHTS with glass fiber filter and PVDF support obtained from Millipore Corp, Billerica, Mass. (cat. no. MSFB N6B, lot no. R8AN42424). Wells of the MultiScreen plate were pre-soaked with 0.5% of cold Poly(ethyleneimine) (PEI) (cat. no. P3143, Sigma-Aldrich, St. Louis, Mo.) for 30 minutes. Afterward, wells were washed once with 50 mM of Tris-HCl pH 7.4. Total volume per wells was 200 μL. A fixed concentration of the hot radioligand (1, 3, 5 or 12.5 nM depending on the radioligand; see Table 5) was incubated with progressively higher concentrations (10^−11 to 10^−4 M) of the non-radioactive competitor of interest in the presence of cell membranes (50 μg/well) and the assay buffer (50 mM Tris-HCl pH 7.4, 5 mM MgCl2). The MultiScreen plate was then incubated at 27° C. for 15 minutes with agitation at 300 rpm. The assay was stopped by suctioning the reaction solution through the bottom PVDF membrane filter and discarded. The membranes were washed 7× with 150 μL/well of cold 50 mM Tris-HCl pH 7.4. Radioactivity was counted using 1450 MicroBeta TriLux—Microplate Scintillation and Luminescence Counter (Perkin Elmer Inc., Shelton, Conn.).

Compound: Sar-Lys-Arg-Pro-Hyp-Gly-Cha-Ser-Pro-(D-Phe) ([Sar]KRP[Hyp]G[Cha]SP[dF])
Ki [4]: 0.06 nM | Ki [5]: > 10000 nM

Compound: CC(C)C[C@H](NC(=O)[C@@H]1CCCN1C(=O)[C@H](CO)NC(=O)[C@H](CC1CCCCC1)NC(=O)CNC(=O)[C@@H]1C[C@@H](O)CN1C(=O)[C@@H]1CCCN1C(=O)[C@H](CCCNC(=N)N)NC(=O)[C@H](CCCCN)NC(=O)CCOCCOCCNC(=O)CN1CCN(CC(=O)O)CCN(CC(=O)O)CCN(CC(=O)O)CC1)C(=O)O [Peptide 3, Ga-DOTA-PEG2-Lys-Arg-Pro-Hyp-Gly-Cha-Ser-Pro-Leu] ({DOTA-PEG2}-KRP[Hyp]G[Cha]SPL-OH)
background activity ([6]; in vivo, iv): very low background activity | clearance route ([6]; in vivo, iv): renal and bladder clearance | Ki ([7]; Hot 4.6 nM BK-ANT-ARC, CHO-K1 membranes, individual assays, read-out: Ki): 17.1 nM and 16 nM | Ki ([7]; text of Example 5, referring to Example 4, read-out: binding affinity for B1R): 32.8 nM

Compound: CC(C)C[C@H](NC(=O)[C@@H]1CCCN1C(=O)[C@H](CO)NC(=O)[C@H](CC1CCCCC1)NC(=O)CNC(=O)[C@@H]1C[C@@H](O)CN1C(=O)[C@@H]1CCCN1C(=O)[C@H](CCCNC(=N)N)NC(=O)[C@H](CCCCN)NC(=O)CNC(=O)CNC(=O)CN1CCN(CC(=O)O)CCN(CC(=O)O)CCN(CC(=O)O)CC1)C(=O)O [Peptide 8, Ga-DOTA-Gly-Gly-Lys-Arg-Pro-Hyp-Gly-Cha-Ser-Pro-Leu] ({DOTA}-GGKRP[Hyp]G[Cha]SPL-OH)
clearance route [1]: predominantly via the kidneys and bladder | uptake / visualization of B1R+ tumour [1]: good visualization of B1R+ expressing cells | uptake in negative control (B1R-) tumour [1]: essentially negligible non-specific uptake

Now from value to compound, other results behind:

background activity [1]: minimal background activity | uptake / visualization of B1R+ tumour [1]: Slightly higher tumour uptake | uptake in negative control (B1R-) tumour [1]: no non-specific tumour uptake
Compound: N=C(N)NCCC[C@H](NC(=O)[C@H](CCCCN)NC(=O)CCCCCNC(=O)CN1CCN(CC(=O)O)CCN(CC(=O)O)CCN(CC(=O)O)CC1)C(=O)N1CCC[C@H]1C(=O)N1C[C@H](O)C[C@H]1C(=O)NCC(=O)N[C@@H](CC1CCCCC1)C(=O)N[C@@H](CO)C(=O)N1CCC[C@H]1C(=O)N[C@H](Cc1ccccc1)C(=O)O [Peptide 12, Ga-DOTA-Ahx-Lys-Arg-Pro-Hyp-Gly-Cha-Ser-Pro-(D-Phe)]
clearance route [1]: good clearance through the kidneys and bladder

tissue uptake at 1 h ([2]; kidney uptake): 74.9 ± 29.2 %ID/g | tissue uptake at 1 h ([2]; uptakes in both B1R-negative and B1R-positive tumors): 1.1 ± 0.4 %ID/g | specific uptake to B1R in tumours [3]: No specific uptake
Compound: CC(C)C[C@H](NC(=O)[C@@H]1CCCN1C(=O)[C@H](CO)NC(=O)[C@H](Cc1ccccc1)NC(=O)CNC(=O)[C@@H]1CCCN1C(=O)[C@@H]1CCCN1C(=O)[C@H](CCCNC(=N)N)NC(=O)[C@H](CCCCN)NC(=O)CCCCCNC(=O)CN1CCN(CC(=O)O)CCN(CC(=O)O)CCN(CC(=O)O)CC1)C(=O)O [[^68Ga]-Peptide 4, metal not drawn]
excretion of radioactivity [3]: mainly excreted through the renal pathway

in vivo stability [6]: much greater in vivo stability | background activity ([6]; in vivo, iv): lower background uptake
Compound: CC(C)C[C@H](NC(=O)[C@@H]1CCCN1C(=O)[C@H](CO)NC(=O)[C@H](CC1CCCCC1)NC(=O)CNC(=O)[C@@H]1C[C@@H](O)CN1C(=O)[C@@H]1CCCN1C(=O)[C@H](CCCNC(=N)N)NC(=O)[C@H](CCCCN)NC(=O)CCCCCNC(=O)CN1CCN(CC(=O)O)CCN(CC(=O)O)CCN(CC(=O)O)CC1)C(=O)O [Peptide 10, Ga-DOTA-Ahx-Lys-Arg-Pro-Hyp-Gly-Cha-Ser-Pro-Leu] ({DOTA-Ahx}-KRP[Hyp]G[Cha]SPL-OH)
